pIC50: −log10 of the molar value.
Test system: FADD-deficient Jurkat cells
Test: Cellular necroptosis assay (human TNFα-induced necrosis, CellTiter-Glo)
Assay type: cell-based
Conditions: Homo sapiens, Jurkat, 48 h, TNFα 10 ng/mL, read-out: Cell IC50

SMILES | pIC50
CN1C(=O)[C@@H](NC(=O)c2nn(Cc3ccccn3)cc2F)COc2cccnc21 [Example 74, (S)-4-fluoro-N-(5-methyl-4-oxo-2,3,4,5-tetrahydropyrido[3,2-b][1,4]oxazepin-3-yl)-1-(pyridin-2-ylmethyl)-1H-pyrazole-3-carboxamide] | 6.00 to 10.00
O=C(N[C@H]1COc2ccccc2-n2ccnc21)c1nnc(Cc2ccccc2)[nH]1 [Example 68A, (R)-5-benzyl-N-(4,5-dihydrobenzo[b]imidazo[1,2-d][1,4]oxazepin-4-yl)-4H-1,2,4-triazole-3-carboxamide] | 6.00 to 10.00
O=C(N[C@H]1CCc2ccccc2-n2cnnc21)c1cc(Cc2ccccc2)on1 [Example 71A, (S)-5-benzyl-N-(5,6-dihydro-4H-benzo[f][11,2,4]triazolo[4,3-a]azepin-4-yl)isoxazole-3-carboxamide] | 6.00 to 10.00
CN1C(=O)[C@@H](NC(=O)c2ncc(C3(c4ccccc4)CC3)[nH]2)COc2ccccc21 [Example 78, (S)—N-(5-methyl-4-oxo-2,3,4,5-tetrahydrobenzo[b][1,4]oxazepin-3-yl)-5-(1-phenylcyclopropyl)-1H-imidazole-2-carboxamide] | 6.00 to 10.00
CN1C(=O)[C@@H](NC(=O)c2nn(Cc3ccc(Cl)cn3)cc2F)COc2ccccc21 [Example 216, (S)-1-((5-chloropyridin-2-yl)methyl)-4-fluoro-N-(5-methyl-4-oxo-2,3,4,5-tetrahydrobenzo[b][1,4]oxazepin-3-yl)-1H-pyrazole-3-carboxamide] | 6.00 to 10.00
CN1C(=O)[C@@H](NC(=O)c2cc(Cc3ccccc3)on2)[C@H]2C[C@H]2c2cccnc21 [Example 81A, 5-benzyl-N-((1aS,2S,8bR)-4-methyl-3-oxo-1,1a,2,3,4,8b-hexahydrocyclopropa[d]pyrido[2,3-b]azepin-2-yl)isoxazole-3-carboxamide] | 6.00 to 10.00
CN1C(=O)[C@@H](NC(=O)c2nnc(Cc3ccc(F)cc3)o2)[C@H]2C[C@H]2c2nccnc21 [Example 223, 5-(4-fluorobenzyl)-N-((7S,7aS,8aR)-5-methyl-6-oxo-5,6,7,7a,8,8a-hexahydrocyclopropa[d]pyrazino[2,3-b]azepin-7-yl)-1,3,4-oxadiazole-2-carboxamide] | 6.00 to 10.00
CN1C(=O)[C@@H](NC(=O)c2cc(Cc3ccccc3)[nH]n2)[C@H]2C[C@H]2c2cccnc21 [Example 80A, 5-benzyl-N-((1aS,2S,8bR)-4-methyl-3-oxo-1,1a,2,3,4,8b-hexahydrocyclopropa[d]pyrido[2,3-b]azepin-2-yl)-1H-pyrazole-3-carboxamide] | 6.00 to 10.00
CN1C(=O)[C@@H](NC(=O)c2ncc(C3(c4ccccc4)CC3)s2)COc2cccnc21 [Example 63, (S)—N-(5-methyl-4-oxo-2,3,4,5-tetrahydropyrido[3,2-b][1,4]oxazepin-3-yl)-5-(1-phenylcyclopropyl)thiazole-2-carboxamide] | 6.00 to 10.00
CN1C(=O)[C@@H](NC(=O)c2nn(Cc3ccccc3)cc2F)COc2ccccc21 [Example 64, (S)-1-benzyl-4-fluoro-N-(5-methyl-4-oxo-2,3,4,5-tetrahydrobenzo[b][1,4]oxazepin-3-yl)-1H-pyrazole-3-carboxamide] | 6.00 to 10.00
CN1C(=O)[C@@H](NC(=O)c2cc(Cc3ccccc3)[nH]n2)[C@H]2C[C@H]2c2ccccc21 [Example 60A, 5-benzyl-N-((1aS,2S,8bR)-4-methyl-3-oxo-1,1a,2,3,4,8b-hexahydrobenzo[b]cyclopropa[d]azepin-2-yl)-1H-pyrazole-3-carboxamide] | 6.00 to 10.00
O=C(N[C@@H]1C(=O)Nc2c(F)cc(F)cc2[C@@H]2C[C@H]12)c1cn(Cc2ccccc2)nn1 [Example 90B, 1-benzyl-N-((1aS,2S,8bR)-5,7-difluoro-3-oxo-1,1a,2,3,4,8b-hexahydrobenzo[b]cyclopropa[d]azepin-2-yl)-1H-1,2,3-triazole-4-carboxamide] | 6.00 to 10.00
C[C@H]1Oc2cccnc2N(C)C(=O)[C@H]1NC(=O)c1nnc(C(F)(F)c2ccccc2)o1 [Example 221, 5-(difluoro(phenyl)methyl)-N-((2R,3S)-2,5-dimethyl-4-oxo-2,3,4,5-tetrahydropyrido[3,2-b][1,4]oxazepin-3-yl)-1,3,4-oxadiazole-2-carboxamide] | 6.00 to 10.00
C[C@H]1Oc2cccnc2N(C)C(=O)[C@H]1NC(=O)c1nnc(Cc2ccccc2)s1 [Example 217, 5-benzyl-N-((2R,3S)-2,5-dimethyl-4-oxo-2,3,4,5-tetrahydropyrido[3,2-b][1,4]oxazepin-3-yl)-1,3,4-thiadiazole-2-carboxamide] | 6.00 to 10.00
O=C(N[C@@H]1C(=O)Nc2c(F)cc(F)cc2[C@@H]2C[C@H]12)c1nnc(Cc2ccccc2)o1 [Example 89B, 5-benzyl-N-((1aS,2S,8bR)-5,7-difluoro-3-oxo-1,1a,2,3,4,8b-hexahydrobenzo[b]cyclopropa[d]azepin-2-yl)-1,3,4-oxadiazole-2-carboxamide] | 6.00 to 10.00
CN1C(=O)[C@@H](NC(=O)c2cc(Cc3ccccc3)[nH]n2)CC2(CC2)c2ccccc21 [Example 59, 5-benzyl-N-[(3S)-1-methyl-2-oxo-1,2,3,4-tetrahydrospiro[1-benzazepine-5,1-cyclopropane]-3-yl]-1H-pyrazole-3-carboxamide] | 6.00 to 10.00
CN1C(=O)[C@@H](NC(=O)c2nnc(Cc3ccccc3)o2)CCc2ccccc21 [Example 225, (S)-5-benzyl-N-(1-methyl-2-oxo-2,3,4,5-tetrahydro-1H-benzo[b]azepin-3-yl)-1,3,4-oxadiazole-2-carboxamide] | 6.00 to 10.00
CN1C(=O)[C@@H](NC(=O)c2nnc(Cc3ccccc3)[nH]2)[C@H]2C[C@H]2c2cc(C#N)cnc21 [Example 218, 5-benzyl-N-((1aS,2S,8bR)-7-cyano-4-methyl-3-oxo-1,1a,2,3,4,8b-hexahydrocyclopropa[d]pyrido[2,3-b]azepin-2-yl)-4H-1,2,4-triazole-3-carboxamide] | 6.00 to 10.00
O=C(N[C@H]1CCc2ccccc2-n2cnnc21)c1nnc(Cc2ccccc2)[nH]1 [Example 69A, (S)-5-benzyl-N-(5,6-dihydro-4H-benzo[f][1,2,4]triazolo[4,3-a]azepin-4-yl)-4H-1,2,4-triazole-3-carboxamide] | 6.00 to 10.00
CN1C(=O)[C@@H](NC(=O)c2nn(Cc3ccccc3)cc2F)COc2cccnc21 [Example 76, (S)-1-benzyl-4-fluoro-N-(5-methyl-4-oxo-2,3,4,5-tetrahydropyrido[3,2-b][1,4]oxazepin-3-yl)-1H-pyrazole-3-carboxamide] | 6.00 to 10.00
CN1C(=O)[C@@H](NC(=O)c2nn(Cc3cocn3)cc2F)COc2cccnc21 [Example 209, (S)-4-fluoro-N-(5-methyl-4-oxo-2,3,4,5-tetrahydropyrido[3,2-b][1,4]oxazepin-3-yl)-1-(oxazol-4-ylmethyl)-1H-pyrazole-3-carboxamide] | 6.00 to 10.00
CN1C(=O)[C@@H](NC(=O)c2nn(Cc3ccc(F)cn3)cc2F)COc2ccccc21 [Example 214, (S)-4-fluoro-1-((5-fluoropyridin-2-yl)methyl)-N-(5-methyl-4-oxo-2,3,4,5-tetrahydrobenzo[b][1,4]oxazepin-3-yl)-1H-pyrazole-3-carboxamide] | 6.00 to 10.00
CN1C(=O)[C@H](NC(=O)c2nnc(Cc3ccccc3)[nH]2)C[C@@H](F)c2ccccc21 (mixture of isomers) [Example 12B, 5-benzyl-N-((3S,5S)-5-fluoro-1-methyl-2-oxo-2,3,4,5-tetrahydro-1H-benzo[b]azepin-3-yl)-4H-1,2,4-triazole-3-carboxamide and 5-benzyl-N-((3R,5R)-5-fluoro-1-methyl-2-oxo-2,3,4,5-tetrahydro-1H-benzo[b]azepin-3-yl)-4H-1,2,4-triazole-3-carboxamide] | 6.00 to 10.00
CN1C(=O)[C@@H](NC(=O)c2cc(Cc3ccccc3)on2)[C@H]2C[C@H]2c2ccccc21 [Example 7A, 5-benzyl-N-((2S)-4-methyl-3-oxo-1,1a,2,3,4,8b-hexahydrobenzo[b]cyclopropa[d]azepin-2-yl)isoxazole-3-carboxamide] | 6.00 to 10.00
O=C(N[C@H]1COc2cccnc2NC1=O)c1cc(C2(c3ccccc3)CC2)on1 [Example 62, (S)—N-(4-oxo-2,3,4,5-tetrahydropyrido[3,2-b][1,4]oxazepin-3-yl)-5-(1-phenylcyclopropyl)isoxazole-3-carboxamide] | 6.00 to 10.00
CN1C(=O)[C@@H](NC(=O)c2ncc(Cc3ccccc3)s2)COc2ccccc21 [Example 5, (S)-5-benzyl-N-(5-methyl-4-oxo-2,3,4,5-tetrahydrobenzo[b][1,4]oxazepin-3-yl)thiazole-2-carboxamide] | 6.00 to 10.00
CN1C(=O)[C@@H](NC(=O)c2cnc(C3(c4ccccc4)CC3)[nH]2)COc2ccccc21 [Example 88, (S)—N-(5-methyl-4-oxo-2,3,4,5-tetrahydrobenzo[b][1,4]oxazepin-3-yl)-2-(1-phenylcyclopropyl)-1H-imidazole-5-carboxamide] | 5.00 to 6.00
CN1C(=O)[C@@H](NC(=O)c2ncc(Cc3cccc(C#N)c3)s2)CCc2cccnc21 [Example 219, (S)-5-(3-cyanobenzyl)-N-(9-methyl-8-oxo-6,7,8,9-tetrahydro-5H-pyrido[2,3-b]azepin-7-yl)thiazole-2-carboxamide] | 6.00 to 10.00
COc1cccc(Cn2cc(F)c(C(=O)N[C@H]3COc4ccccc4N(C)C3=O)n2)n1 [Example 220, (S)-4-fluoro-1-((6-methoxypyridin-2-yl)methyl)-N-(5-methyl-4-oxo-2,3,4,5-tetrahydrobenzo[b][1,4]oxazepin-3-yl)-1H-pyrazole-3-carboxamide] | 6.00 to 10.00

Same assay, conditions: Homo sapiens, Jurkat, 48 h, read-out: Cell IC50, TNFα 10 ng/mL, 48 h

SMILES | pIC50
O=C(N[C@H]1CCc2ccccc2-n2ccnc21)c1nnc(Cc2ccccc2)[nH]1 [Example 52, (S)-5-benzyl-N-(5,6-dihydro-4H-benzo[f]imidazo[1,2-a]azepin-4-yl)-4H-1,2,4-triazole-3-carboxamide] | 6.00 to 10.00
